# Reference: patent publication US20040086471A1, “Compositions for darkening the skin and/or hair” (priority 2002, published 2004)
# Columns and labels:
# [1] = test system: Type IV pigmented epidermal equivalents (human melanocytes and keratinocytes); tyrosinase activity / melanin deposition; assay: Pigmentation in pigmented epidermal equivalents (DOPA and F&M staining); type: cell-based; details: for Overall Score (change of pigmentation by DOPA and F&M staining) / Score DOPA staining (tyrosinase activity) / Score F&M staining (Pigment deposition): 0.1% (w/v) in PBS, treated three or five days, type IV epidermal equivalents
# Experimental: Copper PCA (Barnet Products Corp., Englewood cliffs, N.J.) was tested for its ability to induce pigmentation in pigmented epidermal equivalents. The pigmented epidermal equivalents contained human normal melanocytes, together with normal, human-derived epidermal keratinocytes, which have been cultured to form a multi-layered, highly differentiated model of the human epidermis. Type IV pigmented epidermal equivalents (consisting of normal human keratinocytes pooled from variety of phototype skins and normal human melanocytes derived from type IV phototype skin) were treated with test compounds for three or five days and samples were harvested on the fourth or sixth day of the study. The harvested equivalents were stained with DOPA (a substrate for tyrosinase) or with Fontana-Mason (F&M) (Sheenan DC, Hrapckak BB, eds: Theory and practice of Histo-Thchnology (St Louis: CV Mosby, 1980) pp 223-277). F&M staining identifies silver nitrate reducing activity, which, in skin, identifies melanin.
# The epidermal equivalents used were SkinEthic® reconstructed human epidermis from SkinEthic™ Laboratory (Nice, France). UV irradiation was performed with a UVB FS light source in an exposure chamber, with plate covers removed and Phosphate-buffered saline (PBS, from Gibco-BRL, Gaithersburg, Md.) present in the lower chamber. UVB intensity was measured with a UVX radiometer (UVP Inc., San Gabriel, Ca.). Equivalents were treated with 0.1-0.12 J/cm2. […] The copper PCA and tyrosine were dissolved in PBS.
# On the fourth or sixth day of the study, the equivalents were fixed, sectioned and F&M stained, or they were DOPA stained as whole without sectioning, using standard techniques. At least three sections per equivalent, three equivalents per experiment were processed. Each experiment was repeated three times. DOPA-stained epidermal equivalents were evaluated for the change in tyrosinase activity. F&M-stained histological sections were evaluated for the change in pigment deposition. Due to the low content of melanin within the type IV epidermal equivalent, it was not possible to quantify the level of pigment within melanocytes in F&M stained sections by image analysis. Therefore, the pigment change was evaluated using the scale defined below in Table 1.
# Table 2 represents the overall score in change of pigmentation, as evaluated by DOPA and F&M staining, as set forth above, when equivalents were exposed to Copper PCA (0.1% (w/v)) and/or tyrosine (0.1% (w/v)) or UVB irradiation (0.10J/cm^2).
# [2] = test system: skin of Yucatan microswine; assay: Pigment deposition in swine skin in vivo (F&M histology of biopsies); details: for pigment deposition in swine skin (in words): topical, in vivo, histological analysis
# Source text: Dark skinned Yucatan microswine (Charles River, Portland, Me.) were housed in appropriately sized cages in an environmentally controlled room with a 12-hour light—12-hour dark photoperiod and supplied with food and water ad libi tum. Twenty μl of test materials were applied topically, twice a day, five days/week, for eight or nine weeks, on the dorsum of the swine. Treatments of individual swine were always arranged in a head to tail order on one side, and in a tail to head order on the other side of the animal. Biopsies were taken using standard techniques.
# Swine were treated with either 0.5% w(w/v) of the copper PCA and/or tyrosine or ultraviolet-B radiation (as a positive control). The copper PCA and tyrosine were dissolved in ethanol: propylene glycol 70:30 (v/v). A […] erythema dose (MED) of UVB was determined by placing a plastic template with 1×1 inch^2 cutouts on the dorsum of the swine. Using a UVB lamp (Model UVM-57, 302 nm lamp, UVP Inc., Upland, Calif.) placed on the template, sites were exposed to UVB with increasing time points, every other day for five days. Unexposed sites were covered with the same material as the template. One MED was established as the dose that produces the least amount of visible erythema. Swine were exposed to one MED, once per day, on three alternate days (Mon, Wed, Fri).
# Following eight weeks of treatment, skin biopsies were taken using standard methods, for pigment deposition analysis. Sections from the skin biopsies were stained with Hematoxylin and Eosin (H&E), or with Fontana-Mason (F&M), using standard procedures (Sheenan DC, Hrapckak BB, eds., Theory and Practice of Histo-Technology (The C. V. Mosby Co., St. Louis (1980) pp. 223-277). At least three sections per biopsy were processed. Each experiment was repeated at least two times.
# Table 4 represents the average value of all sites of responsive swine treated with each test material. The scale for evaluation is defined in Table 3.
SMILES,Overall Score (change of pigmentation by DOPA and F&M staining) [1],Score DOPA staining (tyrosinase activity) [1],Score F&M staining (Pigment deposition) [1],tyrosinase activity in human pigmented epidermal equivalents (in words) ([1]; in vitro),"Score (pigment deposition, capped epidermal cells) ([2]; 0.5% (w/v) topical, twice a day, five days/week, eight weeks, average of all sites of responsive swine)",pigment deposition in swine skin (in words) [2],pigment deposition in swine skin (in words) ([2]; listed as copper PCA)
O=C1CC[C@@H](C(=O)[O-])N1.O=C1CC[C@@H](C(=O)[O-])N1.[Cu+2] [Copper PCA],1-2,1-2,1-2,significantly increases,2-3,enhanced pigment deposition,significantly increases
"N[C@@H](Cc1ccc(O)cc1)C(=O)O [Tyrosine, tyrosine]",0-2,1-2,0-1,,,,
